From article PMC6271935, “Synthesis and Broad-Spectrum Antiviral Activity of Some Novel Benzo-Heterocyclic Amine Compounds” (Molecules, 2014)

Assays:
[1] = system: Influenza A/hanfang/359/95; experiment: microbe, parasite or virus in culture; assay type: cell-based; conditions: for IC50: Influenza A virus, MDCK
MDCK cells = experiment: Cytotoxicity in MDCK cells (CPE); assay type: cell-based, Canine; conditions: 48 h, Reed & Muench
Protocol: (§1) The cytotoxicity of the compounds in MDCK, Vero and HepG2.2.15 cells was monitored via cytopathic effect (CPE) assays. The MDCK and Vero cells (2.5 × 10^4 /well) were plated in a 96-well plate. Following a 24 h hold period, the monolayer of cells was incubated in the presence of various concentrations of the test compounds. […] The TC50 value was calculated using Reed & Muench analysis.

Cox B3 = experiment: organism not typed; assay type: cell-based, Coxsackie viruses (Cox B3 Nancy strain); conditions: for IC50: Vero
HCV = experiment: Anti-HCV assay in Huh7.5 cells, intracellular HCV RNA by real time RT-PCR; assay type: cell-based; conditions: Hepatitis C virus, 96 h
Huh7.5 cells = experiment: Cytotoxicity in Huh7.5 cells (MTT); assay type: cell-based, human; conditions: 96 h
Protocol: The Huh7.5 cells (1 × 10^4 cells/well) were plated in 96-well plates. Six hours later the culture media was replaced with fresh medium containing the test compounds at various concentrations. Cytotoxicity was evaluated with the 3-(4,5-dimethylthiazol-2-yl)-2,5-diphenyltetrazolium bromide (MTT) assay after 96 h.
Huh7.5 cells were seeded at a density of 3 × 10^4 cells/cm^2. After 24 h of incubation, the cells were infected with an HCV viral stock (approximately 45 IU per cell) and simultaneously treated with Telaprevir, the test compounds, or the solvent control. The culture medium was removed 96 h after inoculation, and the total intracellular RNA and total intracellular proteins were extracted with a Qiagen Kit according to the manufacturer’s instructions. Intracellular HCV RNA was quantified using a one-step real time RT-PCR kit (Invitrogen). Cytotoxicity was tested by the MTT assay, and IC50 values were calculated by the Reed and Muench methods.

HBV = experiment: Anti-HBV assay in HepG2.2.15 cells, viral DNA by real time PCR; assay type: cell-based, Hepatitis B virus; conditions: for IC50: Hepatitis B virus, HepG2.2.15, 144 h, intracellular viral DNA, 3 + 3 days
Protocol: The synthesized target compounds were assayed for their broad spectrum antiviral activity towards influenza A, HBV, HCV and Cox B3 virus in vitro. […] The inhibitory activities towards HBV and HCV were tested by real time PCR, and lamivudine (3TC) and teleprevir were used as positive controls, respectively.
The anti-HBV activities of test compounds and a positive control drug were tested in HepG2.2.15 cells. The HepG2.2.15 cells were cultured in 96-well plates and treated with the test compounds at 37 °C for 3 days. The medium was removed, and fresh medium containing the test compounds was added for an additional 3 days. The cells were harvested and intracellular DNA was extracted. The inhibition of viral DNA replication in treated cells versus untreated cells was determined by real time PCR.

HepG2.2.15 cells = experiment: Cytotoxicity in HepG2.2.15 cells (CPE); assay type: cell-based, human; conditions: 3 + 3 days
Protocol: Cells were cultured for 3 days at 37 °C in a 5% CO2 atmosphere in an incubator, and the medium was replaced with fresh medium containing the test compounds for an additional 3 days. The cells were subsequently monitored by CPE and the TC50 value was calculated using Reed and Muench analysis.

Vero cells = experiment: Cytotoxicity in Vero cells (CPE); conditions: 48 h, Reed & Muench
Protocol: as §1

| Compound | IC50 [1] [µM] | TC50 (50% cytotoxic concentration), Influenza A/hanfang/359/95 (MDCK cells) [µM] | IC50 (Cox B3) [µM] | IC50 (HCV) [µM] | TC50 (50% cytotoxic concentration), HCV (Huh7.5 cells) [µM] | IC50 (HBV) [µM] | TC50 (50% cytotoxic concentration), HBV (HepG2.2.15 cells) [µM] | melting point [°C] | TC50 (50% cytotoxic concentration), Cox B3 (Vero cells) [µM] | anti-HBV activity (in words) (HBV) | anti-influenza A activity (in words) ([1]; MDCK cells, CPE) | inhibitory activity towards Cox B3 (in words) (Cox B3; Vero cells, CPE) |
| --- | --- | --- | --- | --- | --- | --- | --- | --- | --- | --- | --- | --- |
| Clc1ccc(CNc2ccc3cc[nH]c3c2)cc1 [1a, (4-Chlorobenzyl)-(1H-indol-6-yl)-amine] | > 1.6 | 3.35 | 4.79 | 1.4 | 15.88 | 1.44 | 8.02 | 135 to 137 | 8.34 |  |  |  |
| C(=C\c1ccccc1)/CNc1ccc2cc[nH]c2c1 [1b, (E)-(1H-Indol-6-yl)-(3-phenylallyl)-amine] | > 1.65 | 2.86 | 2.86 |  |  | > 1.85 | 3.21 | 130 to 132 | 8.61 |  |  |  |
| Cc1ccc(CNc2ccc3cc[nH]c3c2)o1 [1c, (1H-Indol-6-yl)-(5-methylfuran-2-ylmethyl)-amine] | > 0.66 | 4.52 | 1.93 | 2.77 | 46.78 | > 5.56 | 16.67 | 100 to 102 | 25.15 | complete loss of antiviral activity |  |  |
| Cc1ccc(CNc2ccc3cc[nH]c3c2)s1 [1d, (1H-Indol-6-yl)-(5-methylthiophen-2-ylmethyl)-amine] | 11.8 | 26.50 | 1.69 |  |  | > 16.7 | 28.87 | 89 to 91 | 66.10 |  |  |  |
| COc1cc(CNc2ccc3ncoc3c2)cc(Br)c1O [2a, 4-(Benzooxazol-6-ylaminomethyl)-2-bromo-6-methoxyphenol] | > 10.6 | 64.04 | 3.52 | 33 | 89.63 | > 16.7 | 28.87 | 129 to 131 | 55.13 |  |  |  |
| c1csc(CNc2ccc3ncoc3c2)c1 [2d, Benzooxazol-6-yl-thiophen-2-ylmethylamine] | 34.4 | 434.24 | 9.29 | > 66.7 | 136.53 |  |  | 62 to 64 | 100.35 |  |  |  |
| c1ncc(CNc2ccc3ncoc3c2)cn1 [2f, Benzooxazol-6-yl-pyrimidin-5-ylmethyl-amine] | > 98.3 | 425.44 | 56.7 |  |  |  |  | 175 to 177 | 295.10 |  |  |  |
| c1cnc2c(CNc3ccc4ncoc4c3)cccc2c1 [2g, Benzooxazol-6-yl-quinolin-8-ylmethylamine] | 9.04 | 56.04 | 8.98 | 14.2 | 27.57 |  |  | 98 to 100 | 80.80 |  |  |  |
| Nc1ccn([C@@H]2CS[C@H](CO)O2)c(=O)n1 [3TC, lamivudine, reference compound] |  |  |  |  |  | 1.85 | >100 |  |  |  |  |  |
| O=[N+]([O-])c1cccc(CNc2ccc3ncsc3c2)c1 [3c, Benzothiazol-6-yl-(3-nitrobenzyl)-amine] | 12.5 | 45.01 | 7.23 |  |  |  |  | 126 to 128 | 112.45 |  |  |  |
| O=[N+]([O-])c1ccc(CNc2ccc3ncsc3c2)cc1 [3d, Benzothiazol-6-yl-(4-nitrobenzyl)-amine] | 3.36 | 272.01 | 1.82 | 22.5 | 142.86 | > 5.56 | 9.62 |  | 181.3 |  |  |  |
| c1csc(CNc2ccc3ncsc3c2)c1 [3h, Benzothiazol-6-yl-thiophen-2-ylmethylamine] | 6.58 | 78.14 | 10.4 | 47.6 | 153.72 |  |  | 148 to 150 | 65.03 |  |  |  |
| c1ccc2c(CNc3ccc4ncsc4c3)c3ccccc3cc2c1 [3k, Anthracen-9-ylmethyl-benzothiazol-6-yl-amine] | > 0.41 | 1.73 |  |  |  |  |  | 174 to 176 | 2.09 |  | complete loss in activity | no inhibitory activity |
| C(=C\c1ccccc1)/CNc1ccc2nc[nH]c2c1 [4a, (E)-(3H-Benzoimidazol-5-yl)-(3-phenyl-allyl)-amine] | 4.93 | 14.84 | 6.38 | 5.51 | 79.04 |  |  |  | 25.75 |  |  |  |
| CCOC(=O)C1=C[C@@H](OC(CC)CC)[C@H](NC(C)=O)[C@@H](N)C1 [Oseltamivir, oseltamivir, reference compound] | 19 | 4030.42 |  |  |  |  |  |  |  |  |  |  |
| NC(=O)c1ncn([C@@H]2O[C@H](CO)[C@@H](O)[C@H]2O)n1 [RBV, ribavirin, reference compound] | 8.76 |  | 2120 |  |  |  |  |  |  |  |  |  |
| CCC[C@H](NC(=O)[C@@H]1[C@H]2CCC[C@H]2CN1C(=O)[C@@H](NC(=O)[C@@H](NC(=O)c1cnccn1)C1CCCCC1)C(C)(C)C)C(=O)C(=O)NC1CC1 [Telaprevir, telaprevir, reference compound] |  |  |  | 0.011 | 32.12 |  |  |  |  |  |  |  |
